T/C data for 20 compounds are collected here from PubChem BioAssay AID330 (DTP/NCI, 2004).

“And” between values parts separate entries of the source, which are not always exact repeats. Equal values may be shown once. Inconclusive results and toxic doses are left out.

In this experiment the test system is P388 leukemia ip, CD2F1 mice, survival T/C. The experiment is described as follows: NCI In Vivo Anticancer Drug Screen. Data for tumor model P388 Leukemia (intraperitoneal) in CD2F1 (CDF1) mice. To be noted: endpoint: median survival time, higher = longer survival. In outline: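 Mice carrying the transplanted tumor received test compound or vehicle. Survival was recorded in each group, and the value is the treated-group measurement divided by that of the vehicle-treated control group.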

[1] abbreviates: dose: 12.5 mg/kg/injection, schedule: Q01DX009 (ip), vehicle: saline with Tween-80.
Setting [2] is: dose: 25.0 mg/kg/injection, schedule: Q01DX009 (ip), vehicle: saline with Tween-80.
Where [3] appears, read: dose: 50.0 mg/kg/injection, schedule: Q01DX009 (ip), vehicle: saline with Tween-80.
[4] abbreviates: dose: 60.0 mg/kg/injection, schedule: Q01DX005 (ip), vehicle: saline with Tween-80.
[5] abbreviates: dose: 120.0 mg/kg/injection, schedule: Q01DX005 (ip), vehicle: saline with Tween-80.
Where [6] appears, read: dose: 240.0 mg/kg/injection, schedule: Q01DX005 (ip), vehicle: saline with Tween-80.
Where [7] appears, read: dose: 50.0 mg/kg/injection, schedule: Q01DX005 (ip), vehicle: saline with Tween-80.
[8] abbreviates: dose: 100.0 mg/kg/injection, schedule: Q01DX005 (ip), vehicle: saline with Tween-80.
The mark [9] stands for this setting: dose: 200.0 mg/kg/injection, schedule: Q01DX005 (ip), vehicle: saline with Tween-80.
Setting [10] is: dose: 50.0 mg/kg/injection, schedule: Q01DX005 (ip), vehicle: Klucel (hydroxypropylcellulose) (HPC).
[11] abbreviates: dose: 100.0 mg/kg/injection, schedule: Q01DX005 (ip), vehicle: Klucel (hydroxypropylcellulose) (HPC).
The mark [12] stands for this setting: dose: 200.0 mg/kg/injection, schedule: Q01DX005 (ip), vehicle: Klucel (hydroxypropylcellulose) (HPC).
Setting [13] is: dose: 100.0 mg/kg/injection, schedule: Q04DX002 (ip), vehicle: saline with Tween-80.
[14] abbreviates: dose: 200.0 mg/kg/injection, schedule: Q04DX002 (ip), vehicle: saline with Tween-80.
The mark [15] stands for this setting: dose: 400.0 mg/kg/injection, schedule: Q04DX002 (ip), vehicle: saline with Tween-80.

With `COC(=O)[C@@]12OC[C@]34C([C@@H](O)C1O)[C@@]1(C)CC(=O)C(O)=C(C)C1C[C@H]3OC(=O)[C@H](OC(=O)c1ccc(Cl)cc1)[C@H]42` (stereo not given in full), the T/C was 112 % of control (dose: 0.25 mg/kg/injection, schedule: Q01DX005 (ip), vehicle: DMSO); 116 % of control (dose: 0.5 mg/kg/injection, schedule: Q01DX005 (ip), vehicle: DMSO); 113 % of control and 115 % of control (dose: 1.0 mg/kg/injection, schedule: Q01DX005 (ip), vehicle: DMSO); 109 % of control and 118 % of control (dose: 2.0 mg/kg/injection, schedule: Q01DX005 (ip), vehicle: DMSO); 109 % of control (dose: 4.0 mg/kg/injection, schedule: Q01DX005 (ip), vehicle: DMSO); 110 % of control and 115 % of control (dose: 8.0 mg/kg/injection, schedule: Q01DX005 (ip), vehicle: DMSO). Moreover, the T/C (dose: 16.0 mg/kg/injection, schedule: Q01DX005 (ip), vehicle: DMSO) is 112 % of control.

Turning to `C/C(=N/NC(=O)O[C@@H]1C[C@H](C)CC[C@H]1C(C)C)c1cc[c]([Sn]([CH3])([Cl])[c]2ccccc2)cc1` (stereo not given in full), the T/C reads like this: (dose: 0.93 mg/kg/injection, schedule: Q01DX005 (ip), vehicle: Klucel (hydroxypropylcellulose) (HPC)) 108 % of control; (dose: 1.87 mg/kg/injection, schedule: Q01DX005 (ip), vehicle: Klucel (hydroxypropylcellulose) (HPC)) 100 % of control; (dose: 3.75 mg/kg/injection, schedule: Q01DX005 (ip), vehicle: Klucel (hydroxypropylcellulose) (HPC)) 100 % of control and 109 % of control; (dose: 7.5 mg/kg/injection, schedule: Q01DX005 (ip), vehicle: Klucel (hydroxypropylcellulose) (HPC)) 107 % of control.

Regarding `Cc1cc(=O)n2c3c(c4c(cc13)c(CN(C)C)cc(=O)n4C)OC2`, the T/C reads like this: under setting [1], 111 % of control; under setting [2], 152 % of control; under setting [3], 102 % of control and 118 % of control.

For `O=C(Cn1ccnc1)N1CCN(c2ccccc2)CC1`, the T/C by setting is: under setting [4], 100 % of control; under setting [5], 94 % of control; under setting [6], 96 % of control.

Consider `NC(=O)C1CCCC12NC(=O)NC2=O` (stereo not given), for which the T/C was 90 % of control (dose: 100.0 mg/kg/injection, schedule: Q01DX009 (ip), vehicle: Klucel (hydroxypropylcellulose) (HPC)); 90 % of control (dose: 200.0 mg/kg/injection, schedule: Q01DX009 (ip), vehicle: Klucel (hydroxypropylcellulose) (HPC)); 100 % of control (dose: 400.0 mg/kg/injection, schedule: Q01DX009 (ip), vehicle: Klucel (hydroxypropylcellulose) (HPC)).

Consider `CCOc1ccc2c(c1)[n+](=O)c1ccc(Cl)cc1n2[O-]`, for which the T/C under setting [7] was 104 % of control and 111 % of control and 118 % of control; the T/C under setting [8] was 104 % of control and 116 % of control and 118 % of control; the T/C under setting [9] is 112 % of control.

Consider `CC(=O)C(C[n+]1ccccc1)c1ccccc1` (stereo not given), for which the T/C reads like this: (dose: 15.0 mg/kg/injection, schedule: Q01DX005 (ip), vehicle: saline) 98 % of control; (dose: 30.0 mg/kg/injection, schedule: Q01DX005 (ip), vehicle: saline) 98 % of control; (dose: 60.0 mg/kg/injection, schedule: Q01DX005 (ip), vehicle: saline) 102 % of control and 107 % of control.

Regarding `Cc1cccc(-c2nc(=S)nc(N)s2)c1`, the T/C is, setting by setting: (dose: 100.0 mg/kg/injection, schedule: Q01DX001 (ip), vehicle: saline with Tween-80) 95 % of control; (dose: 200.0 mg/kg/injection, schedule: Q01DX001 (ip), vehicle: saline with Tween-80) 93 % of control.

`Cc1nc(N)nc(Nc2ccccc2)n1`: the T/C was 103 % of control under setting [4], 99 % of control under setting [5] and 101 % of control under setting [6].

Regarding `CC1OC(OC2C(O[C@H]3CC[C@@]4(C)C(=CC[C@H]5[C@@H]6C[C@@H]7O[C@]8(CC[C@H](C)CN8)[C@@H](C)[C@@H]7[C@@]6(C)CC[C@@H]54)C3)OC(CO)C(O)C2OC2OC(CO)C(O)C(O)C2O)C(O)C(O)C1O` (stereo not given in full), the T/C (dose: 6.25 mg/kg/injection, schedule: Q01DX009 (ip), vehicle: saline with Tween-80) was 90 % of control; the T/C under setting [1] is 86 % of control; the T/C under setting [2] is 90 % of control.

For the compound `Oc1ccccc1C=NCCCN=Cc1ccccc1O`, the T/C (dose: 18.75 mg/kg/injection, schedule: Q01DX009 (ip), vehicle: saline with Tween-80) is 103 % of control; the T/C (dose: 37.5 mg/kg/injection, schedule: Q01DX009 (ip), vehicle: saline with Tween-80) was 110 % of control; the T/C under setting [3] is 109 % of control; the T/C (dose: 75.0 mg/kg/injection, schedule: Q01DX009 (ip), vehicle: saline with Tween-80) is 111 % of control; the T/C (dose: 200.0 mg/kg/injection, schedule: Q01DX009 (ip), vehicle: saline with Tween-80) is 121 % of control; the T/C (dose: 400.0 mg/kg/injection, schedule: Q01DX009 (ip), vehicle: saline with Tween-80) was 119 % of control.

For `Oc1ccc(Br)cc1C(c1ccc2c(c1)OCO2)N1CCOCC1` (stereo not given), the T/C reads like this: under setting [4], 100 % of control; under setting [5], 101 % of control; under setting [6], 102 % of control.

As for `Cc1c[n+]2ccc3ccccc3c2c2ccccc12`, the T/C is, setting by setting: (dose: 2.2 mg/kg/injection, schedule: Q01DX009 (ip), vehicle: Klucel (hydroxypropylcellulose) (HPC)) 119 % of control; (dose: 2.5 mg/kg/injection, schedule: Q01DX009 (ip), vehicle: Klucel (hydroxypropylcellulose) (HPC)) 116 % of control; (dose: 3.3 mg/kg/injection, schedule: Q01DX009 (ip), vehicle: Klucel (hydroxypropylcellulose) (HPC)) 120 % of control; (dose: 5.0 mg/kg/injection, schedule: Q01DX009 (ip), vehicle: Klucel (hydroxypropylcellulose) (HPC)) 122 % of control.

Regarding `Cc1ccc(NP2(Nc3ccc(C)cc3)=NP(Nc3ccc(C)cc3)(Nc3ccc(C)cc3)=NP(Nc3ccc(C)cc3)(Nc3ccc(C)cc3)=NP(Nc3ccc(C)cc3)(Nc3ccc(C)cc3)=N2)cc1`, the T/C by setting is: under setting [10], 101 % of control; under setting [11], 99 % of control; under setting [12], 101 % of control.

Consider `OCCN1C(c2ccccc2)=CN2C=CSC21` (stereo not given), for which the T/C runs as follows: under setting [13], 97 % of control; under setting [14], 94 % of control; under setting [15], 97 % of control.

`CCOC(=O)c1csc(=S)[nH]1`: the T/C under setting [4] was 107 % of control, the T/C under setting [5] is 101 % of control and the T/C under setting [6] was 100 % of control.

Take `O=Cc1ccccc1C=O`: the T/C runs as follows: under setting [13], 98 % of control; under setting [14], 107 % of control; under setting [15], 102 % of control.

For the compound `CCCCCCCCCCCCCCCC(=O)N(CCCCCCCCCN(CCCN(C)C)C(=O)CCCCCCCCCCCCCCC)CCCN(C)C`, the T/C is 108 % of control (dose: 3.13 mg/kg/injection, schedule: Q01DX009 (ip), vehicle: water); 109 % of control (dose: 6.25 mg/kg/injection, schedule: Q01DX009 (ip), vehicle: water); 105 % of control (dose: 12.5 mg/kg/injection, schedule: Q01DX009 (ip), vehicle: water); 93 % of control and 96 % of control (dose: 25.0 mg/kg/injection, schedule: Q01DX009 (ip), vehicle: water); 103 % of control (dose: 50.0 mg/kg/injection, schedule: Q01DX009 (ip), vehicle: water).

`O=Nc1c2n[nH]c1CCCCCCCCC2`: the T/C reads like this: under setting [10], 101 % of control; under setting [11], 101 % of control; under setting [12], 98 % of control.

Take `Cc1ccc(N=NC2=C3Sc4ccccc4N=C2N(c2ccc(Br)cc2)C(=S)N3c2ccc(Cl)cc2)cc1`: the T/C was 102 % of control under setting [7], 90 % of control under setting [8] and 88 % of control under setting [9].
